From paper PMC13065040 (PLOS One, 2026)
pIC50: −log10 of the molar value. “Also recorded” adds a separate entry of the source.

What was measured:
[1] = target: T1, MMP-2 (Homo sapiens, UniProt P08253); assay: Surface plasmon resonance (SPR), immobilized MMP-2; assay type: binding; conditions: NTA chip, peptides 500 µM to 3.90 µM, pH 7.4
T1 construct: ProSpec Bio; Antibodies-Online; Elabscience; Abcam ENZ-769; ABIN7400042; PKSH033450
T1 sequence (P08253 110-660): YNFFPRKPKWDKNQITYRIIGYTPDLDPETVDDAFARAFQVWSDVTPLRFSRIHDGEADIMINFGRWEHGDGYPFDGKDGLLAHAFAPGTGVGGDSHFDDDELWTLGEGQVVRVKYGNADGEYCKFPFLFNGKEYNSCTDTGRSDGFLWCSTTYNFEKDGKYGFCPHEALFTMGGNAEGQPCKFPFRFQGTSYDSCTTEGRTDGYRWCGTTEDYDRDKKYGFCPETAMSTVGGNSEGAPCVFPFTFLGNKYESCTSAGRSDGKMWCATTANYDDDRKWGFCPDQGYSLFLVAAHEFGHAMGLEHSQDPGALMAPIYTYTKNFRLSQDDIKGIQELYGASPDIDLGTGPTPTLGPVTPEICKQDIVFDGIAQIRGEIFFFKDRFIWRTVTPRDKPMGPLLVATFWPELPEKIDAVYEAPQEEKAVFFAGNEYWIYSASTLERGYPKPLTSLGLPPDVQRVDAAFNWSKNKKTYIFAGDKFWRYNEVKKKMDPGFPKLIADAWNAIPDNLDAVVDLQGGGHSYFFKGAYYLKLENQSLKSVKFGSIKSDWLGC
Procedure: Surface plasmon resonance (SPR) reagents, plates, and the NTA chip were purchased from GE Healthcare Life Sciences, now Cytiva (Marlborough, MA, USA). Measurements were performed using the Biacore 8000 SPR System (Marlborough, MA. USA). The running buffer used for protein immobilization and peptide binding consisted of 20 mM Tris, 150 mM NaCl, […] and 0.0005% Tween-20, adjusted to pH 7.4. MMP-2 and NRP-1 were immobilized onto the NTA chip at 15 nM and 25 nM concentration, respectively. Peptides were injected over the immobilized proteins using two-fold serial dilutions from 500 µM to 3.90 µM. Three experiments with four replicates of each were performed. The SPR response curves generated from the Biacore Insight Evaluation Software were fitted to a steady-state affinity model to obtain an equilibrium dissociation constant (KD) for each peptide — protein interaction.

[2] = tested on: MMP-2; conditions: cited from earlier work
Text: Ctx (Fig 2) is a 36-residue polypeptide from the scorpion Leiurus quinquestriatus. Ctx contains 8 cysteinyl residues, forming 4 disulfide bridges which help to stabilize its three-dimensional structure. […] However, conflicting data on the effects of Ctx on the glioma-specific chloride channel makes it difficu ... || Given the absence of change in melting temperature, the present result cannot confirm the notion that Ctx binds to the three fibronectin regions in the collagen binding domain [33].

[3] = target: T2, MMP-2 (Homo sapiens, UniProt P08253); assay: MMP-2 inhibition assay (Enzo kit, OmniMMP RED fluorogenic substrate); assay type: biochemical
T2 construct: purchased Enzo Life Sciences (MMP-2 drug discovery kit)
Procedure: The MMP-2 inhibition assay was performed using the Enzo Life Sciences MMP-2 drug discovery kit. and the quenched fluorogenic substrate OmniMMP RED. Reference substrate was diluted to a final concentration of 5 μM, while the MMP-2 enzyme was diluted to 58 mU/µL, and the N-Isobutyl-N-(4-methoxyphenylsulfonyl)glycyl hydroxamic acid (NNGH) inhibitor was diluted to a concentration of 1/200 in assay buffer. […] The assay was performed using a black 96-well microplate. Fluorescence was measured at excitation/emission wavelengths of 545/576 nm, with a cutoff at 570 nm using Gen5 microplate reader (BioTeK, Shoreline, WA). Baseline fluorescence was recorded before adding NNGH inhibitor which was used as a positive control for MMP-2 inhibition. Reaction mixtures in the plate were incubated at 37 °C for 10 min, and fluorescence was measured at 10 min intervals for the first 30 min, then at 30 min intervals until 2 h had elapsed. […] Statistical analysis was performed using ANOVA with GraphPad Prism software, version 10.0.3.

[4] = tested on: GBM cells; conditions: read-out: IC50, inhibition of migration of GBM cells; cited from earlier work
Text: Ctx (Fig 2) is a 36-residue polypeptide from the scorpion Leiurus quinquestriatus. Ctx contains 8 cysteinyl residues, forming 4 disulfide bridges which help to stabilize its three-dimensional structure. […] However, conflicting data on the effects of Ctx on the glioma-specific chloride channel makes it difficu ...

Chlorotoxin [Ctx]
binding to MMP-2 by SPR [1]: did not bind
effect on the enzymatic activity of MMP-2 [2]: no statistically significant effect
inhibition of MMP-2 enzymatic activity [2]: inhibits MMP-2 enzymatic activity
MMP-2 enzymatic activity, percent of control ([3]; Ctx 1 µM, replicate 1): 118.933
MMP-2 enzymatic activity, percent of control ([3]; Ctx 1 µM, replicate 2): 112.076
MMP-2 enzymatic activity, percent of control ([3]; Ctx 1 µM, replicate 3): 102.494
MMP-2 enzymatic activity, percent of control ([3]; Ctx 1 µM, replicate 4): 91.6233
MMP-2 enzymatic activity, percent of control ([3]; Ctx 1 µM, replicate 5): 88.1016
MMP-2 enzymatic activity, percent of control ([3]; Ctx 1 µM, replicate 6): 107.77
MMP-2 enzymatic activity, percent of control ([3]; Ctx 1 µM, replicate 7): 112.009
MMP-2 enzymatic activity, percent of control ([3]; Ctx 1 µM, replicate 8): 115.93
MMP-2 enzymatic activity, percent of control ([3]; Ctx 5 µM, replicate 1): 109.471
MMP-2 enzymatic activity, percent of control ([3]; Ctx 5 µM, replicate 2): 117.657
MMP-2 enzymatic activity, percent of control ([3]; Ctx 5 µM, replicate 3): 107.159
MMP-2 enzymatic activity, percent of control ([3]; Ctx 5 µM, replicate 4): 113.75
MMP-2 enzymatic activity, percent of control ([3]; Ctx 5 µM, replicate 5): 100.089
MMP-2 enzymatic activity, percent of control ([3]; Ctx 5 µM, replicate 6): 108.86
MMP-2 enzymatic activity, percent of control ([3]; Ctx 5 µM, replicate 7): 121.511
MMP-2 enzymatic activity, percent of control ([3]; Ctx 5 µM, replicate 8): 108.966
MMP-2 enzymatic activity, percent of control ([3]; Ctx 10 µM, replicate 1): 86.2677
MMP-2 enzymatic activity, percent of control ([3]; Ctx 10 µM, replicate 2): 99.1052
MMP-2 enzymatic activity, percent of control ([3]; Ctx 10 µM, replicate 3): 97.4706
MMP-2 enzymatic activity, percent of control ([3]; Ctx 10 µM, replicate 4): 94.5071
MMP-2 enzymatic activity, percent of control ([3]; Ctx 10 µM, replicate 5): 60.0877
MMP-2 enzymatic activity, percent of control ([3]; Ctx 10 µM, replicate 6): 92.3409
MMP-2 enzymatic activity, percent of control ([3]; Ctx 10 µM, replicate 7): 113.684
MMP-2 enzymatic activity, percent of control ([3]; Ctx 10 µM, replicate 8): 106.8
MMP-2 enzymatic activity, percent of control ([3]; Ctx 15 µM, replicate 1): 86.879
MMP-2 enzymatic activity, percent of control ([3]; Ctx 15 µM, replicate 2): 110.627
MMP-2 enzymatic activity, percent of control ([3]; Ctx 15 µM, replicate 3): 103.344
MMP-2 enzymatic activity, percent of control ([3]; Ctx 15 µM, replicate 4): 104.062
MMP-2 enzymatic activity, percent of control ([3]; Ctx 15 µM, replicate 5): 43.5824
MMP-2 enzymatic activity, percent of control ([3]; Ctx 15 µM, replicate 6): 117.856
MMP-2 enzymatic activity, percent of control ([3]; Ctx 15 µM, replicate 7): 126.92
MMP-2 enzymatic activity, percent of control ([3]; Ctx 15 µM, replicate 8): 120.528
MMP-2 enzymatic activity, percent of control ([3]; Ctx 20 µM, replicate 1): 134.561
MMP-2 enzymatic activity, percent of control ([3]; Ctx 20 µM, replicate 2): 108.926
MMP-2 enzymatic activity, percent of control ([3]; Ctx 20 µM, replicate 3): 139.252
MMP-2 enzymatic activity, percent of control ([3]; Ctx 20 µM, replicate 4): 98.6135
MMP-2 enzymatic activity, percent of control ([3]; Ctx 20 µM, replicate 5): 53.8949
MMP-2 enzymatic activity, percent of control ([3]; Ctx 20 µM, replicate 6): 135.226
MMP-2 enzymatic activity, percent of control ([3]; Ctx 20 µM, replicate 7): 133.352
MMP-2 enzymatic activity, percent of control ([3]; Ctx 20 µM, replicate 8): 121.591
inhibition of MMP-2 enzymatic activity (Fig 10A) ([3]; Ctx at 1, 5, 10, 15 and 20 µM, compared to control inhibitor): did not inhibit; also recorded: not statistically significant
inhibition of MMP-2 enzymatic activity (Fig 10B) ([3]; peptides at 1 µM, 50 µM and 100 µM, one-way ANOVA vs control): not statistically significant
pIC50 [4]: 6.74
